Data as given in paper PMC4865823, “Plant phosphomannose isomerase as a selectable marker for rice transformation” (Scientific Reports, 2016).

System: T1, OsPMI2 (GST-OsPMI2)
T1 construct: full CDS, N-terminal GST tag kept, E. coli Rosetta (DE3) pLysS; denatured from inclusion bodies and recovered
Assay: PGI/G6PDH-coupled assay, NADP reduction at […] nm, Lineweaver-Burk
Format: biochemical, Oryza sativa subsp. japonica
Conditions: 50 mM Tris-HCl pH 7.5, 30 °C; M-6-P to F-6-P; enzyme recovered from denatured inclusion bodies

Km: 6.462 ± 0.0479 mM
Structure (SMILES): O=P(O)(O)OC[C@H]1OC(O)[C@@H](O)[C@@H](O)[C@@H]1O (stereo partly shown) [mannose-6-phosphate]
